Legend:
Assay type in all cases: in vivo, human
[1] = Food effect PK study, two single oral 1000 mg doses of abiraterone acetate, fed (high fat) vs fasted
Description: (§1) To measure the amount of abiraterone and abiraterone acetate in the samples, these compounds were extracted from 100 uL human plasma using solid phase extraction (SPE) with cation mixed-mode polymer cartridges. Extracts were evaporated to dryness before reconstitution and analysis. Chromatography was carried out using a Luna™ C5 column (5 μm, 50 mm×2.1 mm id) with a gradient mobile phase consisting of 10 mM ammonium acetate and 2% propan-2-ol in acetonitrile. The flow rate was 0.2 mL/min and the run time 10.5 minutes. Abiraterone and abiraterone acetate were ionized using the electrospray interface in positive ion mode. Detection of analytes was via tandem mass spectrometry (MS/MS) in the multiple reaction monitoring (MRM) mode.
PK modeling was conducted using a non-compartmental model, extra vascular input for plasma with WinNonLin Software®. Pharmacokinetic parameters estimated in the model include:
Based on the above results, the PK parameters for a single dose of 1000 mg/day of abiraterone acetate were further studied in the 3 subjects who were administered the 1000 mg/day dose and in 3 additional subjects. Two single oral doses (1000 mg) of abiraterone acetate were administered separately, one concomitantly with food of high fat content and one in fasting state. The first single dose was administered on day −9 with PK blood samples being taken at 1, 2, 4, 6, 8, 24, 48 and 72 hours post dose. The second single dose was administered on day −3 with PK blood samples being taken at 1, 2, 4, 6, 8, 24 and 48 hours post dose for analysis.

[2] = test system: circulating tumor cells (CTC); assay: Number of circulating tumor cells after administration; settings: certain patients after administration
[3] = Pharmacokinetic study of abiraterone in hormone refractory prostate cancer patients, oral doses 250-2000 mg/day, fasted
Description: A group of 15 subjects was divided into five groups. Members of each group were orally administered doses of 250 mg/day, 500 mg/day, 750 mg/day, 1000 mg/day or 2000 mg/day once a day. Before administration the subjects had fasted. PK blood samples were measured at 1, 2, 4, 6, 8, 24, and 72 hours post dose.
as §1
PK modeling was conducted using a non-compartmental model, extra vascular input for plasma with WinNonLin Software®. Pharmacokinetic parameters estimated in the model include: […]

[4] = test system: androgenic steroids, such as testosterone; assay: Blood plasma levels of androgenic steroids; settings: some subjects
Description: (§2) FIGS. 15A-15H show the blood plasma level of certain steroids over time in subjects that were administered 250 mg/day, 500 mg/day and 750 mg/day of abiraterone acetate.

[5] = test system: alkaline phosphatase (ALP); assay: Blood plasma levels of alkaline phosphatase; settings: some subjects
Description: as §2

tumor lesions = assay: Effect on tumor mass size, CT scans (RECIST), bone disease, nodes and metastases
Description: (§3) The effect of abiraterone acetate on the blood levels of prostate-specific antigen (PSA) was evaluated. Two groups of subjects were involved in the study. The first group (“Group 1”) was comprised of the 18 subjects discussed above as well as 12 additional subjects that were administered 1000 mg/day of abiraterone acetate. All 30 of the subjects in Group 1 were castrated and hormone refractory; however, none of the 30 had been treated with chemotherapy, i.e., they were chemotherapy-naïve. The second group (“Group 2”) was comprised of 13 subjects, all of whom were castrated and hormone refractory. Also, these 13 subjects had been administered docetaxel and were chemotherapy refractory. The subjects in Group 2 were administered 1000 mg/day of abiraterone acetate. The subjects in both groups were administered abiraterone acetate until they progressed.
The effect of the administration of abiraterone acetate on tumor mass size was observed.

[6] = test system: prostate-specific antigen (PSA); assay: Effect of abiraterone acetate on blood levels of prostate-specific antigen (PSA)
Description: as §3
60% of the Group 1 subjects (18 of 30) experienced a decline of PSA levels of greater than 50% for more than 10 days. A third of these subjects experienced PSA declines of greater than 90% for more than 10 days. FIGS. 9A-9D show the effect of the administration of abiraterone acetate on PSA levels for certain of the Group 1 subjects that were administered 250 mg/day, 500 mg/day, 750 mg/day and 1000 mg/day of abiraterone acetate. With respect to the Group 2 subjects, 7 of the 13 subjects experienced a decline in PSA levels of about 50% for more than 10 days.

[7] = Safety, dose limiting toxicity in phase I/II study; settings: all subjects tested, Group 1 (250-2000 mg/day) and Group 2 (1000 mg/day)
Description: An open label phase I/II study was carried out to evaluate the safety, efficacy and recommended dose of abiraterone acetate in prostate cancer patients. Pharmacokinetics (PK), pharmacodynamics and antitumor efficacy were also studied.
as §3

[8] = Analgesic use in Group 1 and Group 2 subjects; settings: subjects of both groups

Compound: CC(=O)O[C@H]1CC[C@@]2(C)C(=CCC3C2CC[C@]2(C)C(c4cccnc4)=CCC32)C1 (stereo partly shown) [abiraterone acetate, 3-acetoxy-17-(3-pyridyl)androsta-5,16-diene]
- AUC at 2000 mg relative to 1000 mg (doubling) ([1]; extended cohort, fasted group): no longer
- AUC at 2000 mg relative to 1000 mg ([1]; extended cohort, fed group): approximate doubling of AUC
- abiraterone acetate detected in vivo ([1]; following an oral dose of abiraterone acetate at 1000 mg): no abiraterone acetate was detected
- mean drug exposure (AUC) at 2000 mg relative to 1000 mg ([1]; previously, in both dosing regimes (fed and fasted)): approximately double
- number of circulating tumor cells (CTC) [2]: declines
- drug levels at 1000 mg compared with 500 mg ([3]; 1000 mg vs 500 mg Abiraterone acetate): higher
- drug levels measured at 1000 mg compared with 750 mg fasting ([3]; 1000 mg vs 750 mg in a fasting state): not higher
- blood plasma levels of androgenic steroids, such as testosterone [4]: declines
- blood plasma levels of alkaline phosphatase (ALP) [5]: declines
- partial radiological responses as measured by CT scans (RECIST) (tumor lesions; 20 evaluable Group 1 subjects with measurable tumor lesions): 11 subjects
- subjects with ongoing stable bone disease (tumor lesions; Group 1): Seven
- subjects with regressing bone disease (tumor lesions; Group 1): three
- pelvic nodes (tumor lesions; subject administered 250 mg/day (FIG. 10)): regression of pelvic nodes
- mediastinal nodes (tumor lesions; subject administered 500 mg/day (FIG. 13)): regression of mediastinal nodes
- pelvic nodes (tumor lesions; subject administered 750 mg/day (FIG. 11)): regression of pelvic nodes
- pulmonary metastases (tumor lesions; subject administered 750 mg/day (FIG. 14)): regression of pulmonary metastases
- pelvic nodes (tumor lesions; subject administered 1000 mg/day (FIG. 12)): regression of pelvic nodes
- subjects with decline of PSA levels of greater than 50% for more than 10 days ([6]; Group 1: 30 castrated, hormone refractory, chemotherapy-naïve subjects (18 of 30)): 60%
- subjects with PSA declines of greater than 90% for more than 10 days ([6]; Group 1, fraction of these subjects): A third
- subjects with decline in PSA levels of about 50% for more than 10 days ([6]; Group 2: 13 castrated, hormone refractory, docetaxel-treated chemotherapy refractory subjects, 1000 mg/day): 7 of the 13
- dose limiting toxicity (DLTs) [7]: No dose limiting toxicity (DLTs) were observed
- analgesic use [8]: decrease in analgesic use was observed

From patent US20090124587A1, “METHODS FOR TREATING CANCER USING 17alpha-HYDROXYLASE/C17,20-LYASE INHIBITORS” (priority 2007, published 2009)
